In US7138418B2, “Pentafluorobenzenesulfonamides and analogs” (Amgen, Inc., priority 1996, dated 2006) one finds EC (max) and melting point data, which are given here for 28 molecules.

For data set [1], the system named is LDL receptor expression in Hep G2 cells. The data set is described as follows: LDL receptor expression in Hep G2 cells by western-blot analysis. Format: cell-based. Particulars: Homo sapiens, HepG2, minimum concentration at which a maximal induction of LDL receptor was observed. The method, then:
Compounds may be evaluated in vitro for their ability to increase LDL receptor expression using western-blot analysis, for example, as described in Tam et al. (1991) J. Biol. Chem. 266, 16764. Established animal models to evaluate hypocholesterolemic effects of compounds are known in the art. […] 81, 300; Evans et al. (1994) J. Lipid Res. 35, 1634; Lin et al (1995) J. Med. Chem. 38, 277.
Compounds were evaluated for their ability to increase LDL receptor expression in Hep G2 cells using western-blot analysis as described in Tam et al., J. Biol. Chem., 266, 16764 (1991).

`O=S(=O)(Nc1ccc2c(c1)OCO2)c1c(F)c(F)c(F)c(F)c1F` [Example 4, 1,2-Methylenedioxy-4-pentafluorophenylsulfonamidobenzene] registered an EC (max) in data set [1] of no more than 5 µM.

On to `CN(C)c1cccc(NS(=O)(=O)c2c(F)c(F)c(F)c(F)c2F)c1` [Example 2, 3-(N,N-Dimethylamino)-1-pentafluorophenylsulfonamidobenzene], for which, in data set [1], the EC (max) was 5 µM.

Regarding `O=S(=O)(Nc1ccc(Cl)nc1)c1c(F)c(F)c(F)c(F)c1F` [Example 36, 2-Chloro-5-pentafluorophenylsulfonamidopyridine], the melting point (in general, the temperature of the solid-liquid transition) was 144 to 145 °C.

For the molecule `O=S(=O)(Nc1cccc(O)c1)c1c(F)c(F)c(F)c(F)c1F` [Example 9, 3-Hydroxy-1-pentafluorophenylsulfonamidobenzene], in data set [1], the EC (max) is 5 µM.

In data set [1], `CN(C)c1ccc(NS(=O)(=O)c2c(F)c(F)c(F)c(F)c2F)cc1` [Example 1, 4-(N,N-Dimethylamino)-1-pentafluorophenylsulfonamidobenzene] registered an EC (max) of 0.5 µM.

`O=S(=O)(Nc1ccc(N2CCOCC2)cc1)c1c(F)c(F)c(F)c(F)c1F` [Example 25, 4-(1-Morpholino)-1-pentafluorophenylsulfonamidobenzene] registered an EC (max) in data set [1] of 15 µM.

As for `CCN(CC)c1ccc(NS(=O)(=O)c2c(F)c(F)c(F)c(F)c2F)cc1` [Example 12, 4-(N,N-Diethylamino)-1-pentafluorophenylsulfonamidobenzene], the EC (max) in data set [1] was 5 µM.

The molecule `COc1ccc(NS(=O)(=O)c2c(F)c(F)c(F)c(F)c2F)cc1Br` [Example 31, 2-Bromo-1-methoxy-4-pentafluorophenylsulfonamidobenzene] registered an EC (max) in data set [1] of no more than 5 µM.

In turn, `COc1ccc(NS(=O)(=O)c2c(F)c(F)c(F)c(F)c2F)cc1[N+](=O)[O-]` [Example 58, 4-Methoxy-3-nitro-1-pentafluorophenylsulfonamidobenzene] displayed a melting point of 95 to 97 °C.

On to `COc1ccc(NS(=O)(=O)c2c(F)c(F)c(F)c(F)c2F)cc1` [Example 8, 4-Methoxy-1-pentafluorophenylsulfonamidobenzene], for which the melting point lay in the range of 102 to 103 °C. The molecule also displayed an EC (max) in data set [1] of 0.5 µM.

`COc1ccc(N(CCCCCO)S(=O)(=O)c2c(F)c(F)c(F)c(F)c2F)cc1` [Example 57, 4-Methoxy-1-(N-(5-hydroxypentyl)pentafluorophenylsulfonamido)benzene] registered a melting point of 96 to 97 °C.

In data set [1], `O=S(=O)(Nc1ccc2c(c1)OCCO2)c1c(F)c(F)c(F)c(F)c1F` [Example 3, 1,2-Ethylenedioxy-4-pentafluorophenylsulfonamidobenzene] gave an EC (max) of 5 µM.

The molecule `COc1ccc(NS(=O)(=O)c2c(F)c(F)c(F)c(F)c2F)cc1N` [Example 59, 3-Amino-4-methoxy-1-pentafluorophenylsulfonamidobenzene] displayed a melting point of 142 to 143 °C.

Molecule `COc1cc(Br)c(NS(=O)(=O)c2c(F)c(F)c(F)c(F)c2F)cc1F` [Example 41, 1-Bromo-4-fluoro-5-methoxy-2-pentafluorophenylsulfonamidobenzene] gave a melting point of 109 °C.

Consider `COc1ccc(NS(=O)(=O)c2c(F)c(F)c(F)c(F)c2F)cc1Cl` [Example 32, 2-Chloro-1-methoxy-4-pentafluorophenylsulfonamidobenzene], for which, in data set [1], the EC (max) was determined as 1.5 µM.

Molecule `O=S(=O)(Nc1ccc2[nH]ncc2c1)c1c(F)c(F)c(F)c(F)c1F` [Example 15, 5-Pentafluorophenylsulfonamidoindazole] gave an EC (max) in data set [1] of 15 µM.

Consider `COc1ccc(N(CCC(O)CO)S(=O)(=O)c2c(F)c(F)c(F)c(F)c2F)cc1` (centres unmarked) [Example 54, 1-(N-(3,4-Dihydroxybutyl)pentafluorophenylsulfonamido)-4-methoxybenzene], for which the melting point is 126 to 128 °C.

In the case of `COc1ccc(NS(=O)(=O)c2c(F)c(F)c(F)c(F)c2F)cc1C(F)(F)F` [Example 49, 4-Methoxy-1-pentafluorophenylsulfonamido-3-trifluoromethylbenzene], the melting point fell in the range of 121 to 123 °C.

In the case of `COc1ccc(NS(=O)(=O)c2c(F)c(F)c(F)c(F)c2F)cc1O` [Example 6, 2-Hydroxy-1-methoxy-4-pentafluorophenylsulfonamidobenzene], in data set [1], the EC (max) was 0.15 µM.

On to `C=CCN(c1ccc(OC)cc1)S(=O)(=O)c1c(F)c(F)c(F)c(F)c1F` [Example 50, 4-Methoxy-1-(N-(2-propenyl)pentafluorophenylsulfonamido)benzene], for which the melting point fell in the range of 59 to 60 °C.

For `COc1ccc(N(CCCCCO)S(=O)(=O)c2c(F)c(F)c(F)c(F)c2F)cc1O` [Example 37, 2-Hydroxy-1-methoxy-4-(N-(5-hydroxypentyl)-pentafluorophenylsulfonamido)benzene], the melting point is 118 °C.

As to `C=CCCN(c1ccc(OC)cc1)S(=O)(=O)c1c(F)c(F)c(F)c(F)c1F` [Example 51, 1-(N-(3-Butenyl)pentafluorophenylsulfonamido)-4-methoxybenzene], the melting point was 64 to 66 °C.

Molecule `COc1ccc(N(CCCCO)S(=O)(=O)c2c(F)c(F)c(F)c(F)c2F)cc1` [Example 56, 1-(N-(4-hydroxybutyl)pentafluorophenylsulfonamido)-4-methoxybenzene] returned a melting point of 88 to 90 °C.

For the molecule `COc1cccc(NS(=O)(=O)c2c(F)c(F)c(F)c(F)c2F)c1` [Example 24, 3-Methoxy-1-pentafluorophenylsulfonamidobenzene], the EC (max) in data set [1] came to 15 µM.

`COc1ccc(N(C)S(=O)(=O)c2c(F)c(F)c(F)c(F)c2F)cc1F` [Example 30, 2-Fluoro-1-methoxy-4-(N-methylpentafluorophenylsulfonamido)benzene] registered an EC (max) in data set [1] of 15 µM.

Take `COc1ccc(N(CC(O)CO)S(=O)(=O)c2c(F)c(F)c(F)c(F)c2F)cc1` (centres unmarked) [Example 53, 1-(N-(2,3-Dihydroxypropyl)pentafluorophenylsulfonamido)-4-methoxybenzene]: the melting point was 130 to 131 °C.

With `COc1ccc(N(CCCC(O)CO)S(=O)(=O)c2c(F)c(F)c(F)c(F)c2F)cc1` (centres unmarked) [Example 55, 1-(N-(4,5-Dihydroxypentyl)pentafluorophenylsulfonamido)-4-methoxybenzene], the melting point lay within 116 to 118 °C.

With `CN(C)c1ccc(N(C)S(=O)(=O)c2c(F)c(F)c(F)c(F)c2F)cc1` [Example 17, 4-(N,N-Dimethylamino)-1-(N-methylpentafluorophenylsulfonamido)benzene], the EC (max) in data set [1] was found to be 5 µM.
